Assay results taken from ChEMBL document CHEMBL3745631, “Discovery of highly potent and selective Bruton's tyrosine kinase inhibitors: Pyridazinone analogs with improved metabolic stability” (Bioorg Med Chem Lett, 2016).

Key:
Hepatocyte = test: Intrinsic clearance in human hepatocytes at 1 uM by LC-MS/MS analysis; assay type: ADME, cell-based
Blood = test: Inhibition of IgE-stimulated CD63 expression in human whole blood
Monocyte = test: Inhibition of IC-induced TNF-alpha release in human monocytes
Mus musculus = test: Clearance in mouse at 1 mg/kg, iv by LC-MS/MS analysis; assay type: ADME, organism-based; conditions: in vivo
Canis familiaris = test: Clearance in dog at 1 mg/kg, iv by LC-MS/MS analysis; assay type: ADME, organism-based, Canis lupus familiaris; conditions: in vivo
[1] = biological target: Tyrosine-protein kinase Lck (Homo sapiens) (UniProt P06239); test: Inhibition of LCK (unknown origin) at 1 uM
[2] = biological target: Sphingosine kinase 1 (Homo sapiens) (UniProt Q9NYA1); test: Inhibition of SPHK1 (unknown origin) at 1 uM
[3] = biological target: Tyrosine-protein kinase Yes (Homo sapiens) (UniProt P07947); test: Inhibition of Yes (unknown origin) at 1 uM
[4] = biological target: Calcium/calmodulin-dependent protein kinase type 1D (Homo sapiens) (UniProt Q8IU85); test: Inhibition of CaMK1 delta (unknown origin) at 1 uM
[5] = biological target: Phosphatidylinositol 4,5-bisphosphate 3-kinase catalytic subunit alpha isoform (Homo sapiens) (UniProt P42336); test: Inhibition of PI3KA (unknown origin) at 1 uM
[6] = test system: RAF proto-oncogene serine/threonine-protein kinase (Homo sapiens), P04049 [Y340D,Y341D]; test: Inhibition of RAF1 Y340D, Y341D mutant (unknown origin) at 1 uM
[7] = biological target: Casein kinase I isoform gamma-2 (Homo sapiens) (UniProt P78368); test: Inhibition of CK1 gamma2 (unknown origin) at 1 uM
[8] = biological target: Fibroblast growth factor receptor 3 (Homo sapiens) (UniProt P22607); test: Inhibition of FGFR3 (unknown origin) at 1 uM
[9] = biological target: Serine/threonine-protein kinase WNK2 (Homo sapiens) (UniProt Q9Y3S1); test: Inhibition of WNK2 (unknown origin) at 1 uM
[10] = biological target: High affinity nerve growth factor receptor (Homo sapiens) (UniProt P04629); test: Inhibition of TrkA (unknown origin) at 1 uM
hERG (KCNH2) = hERG (KCNH2) (Homo sapiens, UniProt Q12809); test: Inhibition of human ERG at 10 uM
[11] = biological target: Dual specificity tyrosine-phosphorylation-regulated kinase 3 (Homo sapiens) (UniProt O43781); test: Inhibition of DYRK3 (unknown origin) at 1 uM
[12] = biological target: Mitogen-activated protein kinase kinase kinase kinase 4 (Homo sapiens) (UniProt O95819); test: Inhibition of MAP4K4 (unknown origin) at 1 uM
[13] = biological target: Phosphorylase b kinase gamma catalytic chain, liver/testis isoform (Homo sapiens) (UniProt P15735); test: Inhibition of PhK gamma2 (unknown origin) at 1 uM
[14] = biological target: Aurora kinase A (Homo sapiens) (UniProt O14965); test: Inhibition of AuroraA (unknown origin) at 1 uM
[15] = biological target: NUAK family SNF1-like kinase 1 (Homo sapiens) (UniProt O60285); test: Inhibition of ARK5 (unknown origin) at 1 uM
[16] = biological target: Serine/threonine-protein kinase Chk2 (Homo sapiens) (UniProt O96017); test: Inhibition of CHK2 (unknown origin) at 1 uM
[17] = biological target: Phosphatidylinositol 4,5-bisphosphate 3-kinase catalytic subunit gamma isoform (Homo sapiens) (UniProt P48736); test: Inhibition of PI3K-G (unknown origin) at 1 uM
[18] = biological target: CDK9/cyclin T1 (Homo sapiens) (UniProt O60563+P50750); test: Inhibition of CDK9/cyclinT1 (unknown origin) at 1 uM; assay type: protein-complex assay
[19] = biological target: Mitogen-activated protein kinase kinase kinase 20 (Homo sapiens) (UniProt Q9NYL2); test: Inhibition of ZAK (unknown origin) at 1 uM
[20] = biological target: Receptor-interacting serine/threonine-protein kinase 2 (Homo sapiens) (UniProt O43353); test: Inhibition of RIPK2 (unknown origin) at 1 uM
[21] = biological target: Tyrosine-protein kinase FRK (Homo sapiens) (UniProt P42685); test: Inhibition of Frk (unknown origin) at 1 uM
[22] = biological target: CDK2/Cyclin A2 (Homo sapiens) (UniProt P24941+P20248); test: Inhibition of CDK2/cyclinA (unknown origin) at 1 uM; assay type: protein-complex assay
[23] = biological target: Wee1-like protein kinase (Homo sapiens) (UniProt P30291); test: Inhibition of WEE1 (unknown origin) at 1 uM
[24] = biological target: SRSF protein kinase 2 (Homo sapiens) (UniProt P78362); test: Inhibition of SRPK2 (unknown origin) at 1 uM
[25] = biological target: Mitogen-activated protein kinase kinase kinase 5 (Homo sapiens) (UniProt Q99683); test: Inhibition of ASK1 (unknown origin) at 1 uM
[26] = biological target: 5'-AMP-activated protein kinase catalytic subunit alpha-1 (Homo sapiens) (UniProt Q13131); test: Inhibition of PRKAA1 (unknown origin) at 1 uM
[27] = biological target: Tyrosine-protein kinase Srms (Homo sapiens) (UniProt Q9H3Y6); test: Inhibition of Srm (unknown origin) at 1 uM
[28] = biological target: Serine/threonine-protein kinase PAK 3 (Homo sapiens) (UniProt O75914); test: Inhibition of PAK3 (unknown origin) at 1 uM
[29] = biological target: Serine/threonine-protein kinase PLK3 (Homo sapiens) (UniProt Q9H4B4); test: Inhibition of PLK3 (unknown origin) at 1 uM
[30] = biological target: Serine/threonine-protein kinase 17A (Homo sapiens) (UniProt Q9UEE5); test: Inhibition of DRAK1 (unknown origin) at 1 uM
[31] = biological target: Insulin-like growth factor 1 receptor (Homo sapiens) (UniProt P08069); test: Inhibition of IGF1R (unknown origin) at 1 uM
[32] = biological target: Serine/threonine-protein kinase Sgk1 (Homo sapiens) (UniProt O00141); test: Inhibition of SGK1 (unknown origin) at 1 uM
[33] = biological target: Non-receptor tyrosine-protein kinase TYK2 (Homo sapiens) (UniProt P29597); test: Inhibition of TYK2 (unknown origin) at 1 uM
[34] = biological target: G protein-coupled receptor kinase 5 (Homo sapiens) (UniProt P34947); test: Inhibition of GRK5 (unknown origin) at 1 uM
[35] = biological target: Ephrin type-A receptor 3 (Homo sapiens) (UniProt P29320); test: Inhibition of EphA3 (unknown origin) at 1 uM
[36] = biological target: Serine/threonine-protein kinase MARK1 (Homo sapiens) (UniProt Q9P0L2); test: Inhibition of MARK1 (unknown origin) at 1 uM
[37] = biological target: MAP/microtubule affinity-regulating kinase 3 (Homo sapiens) (UniProt P27448); test: Inhibition of MARK3 (unknown origin) at 1 uM
[38] = biological target: Inhibitor of nuclear factor kappa-B kinase subunit epsilon (Homo sapiens) (UniProt Q14164); test: Inhibition of IKKepsilon (unknown origin) at 1 uM
[39] = biological target: Protein-tyrosine kinase 6 (Homo sapiens) (UniProt Q13882); test: Inhibition of Brk (unknown origin) at 1 uM

Sequence of Fibroblast growth factor receptor 3 (Homo sapiens) (P22607 23-806 limits assumed): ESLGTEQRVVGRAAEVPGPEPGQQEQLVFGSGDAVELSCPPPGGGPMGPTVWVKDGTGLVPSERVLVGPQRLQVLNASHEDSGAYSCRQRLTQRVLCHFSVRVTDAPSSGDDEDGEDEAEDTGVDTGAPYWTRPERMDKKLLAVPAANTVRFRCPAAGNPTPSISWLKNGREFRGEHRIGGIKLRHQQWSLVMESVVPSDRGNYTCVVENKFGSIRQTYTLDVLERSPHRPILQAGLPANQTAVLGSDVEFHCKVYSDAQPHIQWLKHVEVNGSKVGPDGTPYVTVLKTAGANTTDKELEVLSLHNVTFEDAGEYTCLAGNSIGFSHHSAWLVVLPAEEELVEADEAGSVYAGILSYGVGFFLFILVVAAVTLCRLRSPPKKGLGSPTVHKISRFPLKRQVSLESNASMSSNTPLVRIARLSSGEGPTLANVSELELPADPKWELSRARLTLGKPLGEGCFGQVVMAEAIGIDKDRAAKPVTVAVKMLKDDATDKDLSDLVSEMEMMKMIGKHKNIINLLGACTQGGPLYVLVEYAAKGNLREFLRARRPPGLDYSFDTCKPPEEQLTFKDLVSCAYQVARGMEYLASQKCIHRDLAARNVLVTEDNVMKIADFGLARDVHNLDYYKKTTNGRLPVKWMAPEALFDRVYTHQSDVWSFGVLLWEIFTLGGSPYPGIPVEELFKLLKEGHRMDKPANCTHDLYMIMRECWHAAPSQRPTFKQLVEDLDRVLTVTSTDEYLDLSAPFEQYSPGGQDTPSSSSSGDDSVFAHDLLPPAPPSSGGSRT
Sequence of Calcium/calmodulin-dependent protein kinase type 1D (Homo sapiens) (Q8IU85 whole entry, looked up, canonical isoform): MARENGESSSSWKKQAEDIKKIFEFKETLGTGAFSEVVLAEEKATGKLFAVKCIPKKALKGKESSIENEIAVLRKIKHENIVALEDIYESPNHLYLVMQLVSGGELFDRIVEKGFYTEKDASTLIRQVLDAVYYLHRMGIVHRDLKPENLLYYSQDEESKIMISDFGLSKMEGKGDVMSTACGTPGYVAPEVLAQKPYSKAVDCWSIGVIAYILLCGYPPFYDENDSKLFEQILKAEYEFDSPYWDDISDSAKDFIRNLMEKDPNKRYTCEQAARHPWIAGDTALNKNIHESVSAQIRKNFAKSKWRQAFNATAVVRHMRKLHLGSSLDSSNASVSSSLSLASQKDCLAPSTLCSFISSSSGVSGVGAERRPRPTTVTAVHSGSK
Sequence of Sphingosine kinase 1 (Homo sapiens) (Q9NYA1 whole entry): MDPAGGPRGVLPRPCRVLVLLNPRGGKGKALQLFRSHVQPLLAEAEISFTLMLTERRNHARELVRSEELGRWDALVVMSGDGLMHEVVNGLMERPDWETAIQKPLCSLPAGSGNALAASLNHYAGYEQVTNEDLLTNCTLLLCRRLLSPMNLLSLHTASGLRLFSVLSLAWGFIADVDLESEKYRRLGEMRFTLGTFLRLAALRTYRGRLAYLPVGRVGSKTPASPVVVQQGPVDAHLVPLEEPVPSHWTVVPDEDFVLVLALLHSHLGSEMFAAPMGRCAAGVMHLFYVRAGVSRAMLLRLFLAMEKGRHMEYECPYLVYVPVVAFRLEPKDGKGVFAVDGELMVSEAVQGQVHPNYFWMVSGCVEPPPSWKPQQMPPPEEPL
Sequence of Tyrosine-protein kinase Yes (Homo sapiens) (P07947 2-543 limits assumed): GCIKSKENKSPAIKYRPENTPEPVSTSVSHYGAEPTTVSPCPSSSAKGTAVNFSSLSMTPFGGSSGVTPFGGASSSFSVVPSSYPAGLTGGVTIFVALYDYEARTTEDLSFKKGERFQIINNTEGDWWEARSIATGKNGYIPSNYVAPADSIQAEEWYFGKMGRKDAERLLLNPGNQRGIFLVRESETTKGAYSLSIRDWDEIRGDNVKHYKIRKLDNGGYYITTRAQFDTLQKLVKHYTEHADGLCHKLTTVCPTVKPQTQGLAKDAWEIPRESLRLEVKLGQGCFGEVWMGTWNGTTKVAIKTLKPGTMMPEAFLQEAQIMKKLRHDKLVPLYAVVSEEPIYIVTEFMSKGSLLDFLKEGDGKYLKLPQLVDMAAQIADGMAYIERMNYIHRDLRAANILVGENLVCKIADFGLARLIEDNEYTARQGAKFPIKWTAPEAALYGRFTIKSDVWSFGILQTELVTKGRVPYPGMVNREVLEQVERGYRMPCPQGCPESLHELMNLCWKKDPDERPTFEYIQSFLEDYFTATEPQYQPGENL
Sequence of Serine/threonine-protein kinase PAK 3 (Homo sapiens) (O75914 whole entry, looked up): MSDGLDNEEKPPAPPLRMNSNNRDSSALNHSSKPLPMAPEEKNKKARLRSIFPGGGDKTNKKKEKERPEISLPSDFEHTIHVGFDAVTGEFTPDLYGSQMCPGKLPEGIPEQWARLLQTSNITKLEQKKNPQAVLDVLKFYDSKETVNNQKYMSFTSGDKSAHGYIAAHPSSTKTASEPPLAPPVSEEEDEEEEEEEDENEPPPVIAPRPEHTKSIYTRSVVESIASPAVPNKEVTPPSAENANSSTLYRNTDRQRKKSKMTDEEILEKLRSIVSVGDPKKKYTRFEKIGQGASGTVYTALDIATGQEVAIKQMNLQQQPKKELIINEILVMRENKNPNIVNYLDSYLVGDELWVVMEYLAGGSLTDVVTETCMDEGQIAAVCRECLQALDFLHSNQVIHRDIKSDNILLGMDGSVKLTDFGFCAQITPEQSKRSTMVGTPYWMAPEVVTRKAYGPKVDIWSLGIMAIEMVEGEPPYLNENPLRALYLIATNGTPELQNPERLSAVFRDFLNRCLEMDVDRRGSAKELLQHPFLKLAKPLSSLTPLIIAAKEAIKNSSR
Sequence of Dual specificity tyrosine-phosphorylation-regulated kinase 3 (Homo sapiens) (O43781 whole entry): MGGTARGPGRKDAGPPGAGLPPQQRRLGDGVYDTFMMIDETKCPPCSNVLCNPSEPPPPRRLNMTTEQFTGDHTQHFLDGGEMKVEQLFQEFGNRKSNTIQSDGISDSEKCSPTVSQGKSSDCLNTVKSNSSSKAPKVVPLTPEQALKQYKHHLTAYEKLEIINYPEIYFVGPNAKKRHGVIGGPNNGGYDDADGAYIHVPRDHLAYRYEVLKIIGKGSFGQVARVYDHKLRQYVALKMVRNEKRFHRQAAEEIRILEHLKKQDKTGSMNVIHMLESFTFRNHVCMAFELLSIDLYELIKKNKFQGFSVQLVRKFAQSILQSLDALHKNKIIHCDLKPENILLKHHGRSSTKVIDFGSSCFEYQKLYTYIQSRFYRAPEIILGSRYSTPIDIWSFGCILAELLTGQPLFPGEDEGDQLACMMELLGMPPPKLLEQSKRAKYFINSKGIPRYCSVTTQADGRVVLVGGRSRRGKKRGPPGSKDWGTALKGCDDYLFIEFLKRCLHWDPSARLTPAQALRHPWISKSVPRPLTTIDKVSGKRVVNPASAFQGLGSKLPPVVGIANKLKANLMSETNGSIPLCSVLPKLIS
Sequence of Wee1-like protein kinase (Homo sapiens) (P30291 whole entry, looked up): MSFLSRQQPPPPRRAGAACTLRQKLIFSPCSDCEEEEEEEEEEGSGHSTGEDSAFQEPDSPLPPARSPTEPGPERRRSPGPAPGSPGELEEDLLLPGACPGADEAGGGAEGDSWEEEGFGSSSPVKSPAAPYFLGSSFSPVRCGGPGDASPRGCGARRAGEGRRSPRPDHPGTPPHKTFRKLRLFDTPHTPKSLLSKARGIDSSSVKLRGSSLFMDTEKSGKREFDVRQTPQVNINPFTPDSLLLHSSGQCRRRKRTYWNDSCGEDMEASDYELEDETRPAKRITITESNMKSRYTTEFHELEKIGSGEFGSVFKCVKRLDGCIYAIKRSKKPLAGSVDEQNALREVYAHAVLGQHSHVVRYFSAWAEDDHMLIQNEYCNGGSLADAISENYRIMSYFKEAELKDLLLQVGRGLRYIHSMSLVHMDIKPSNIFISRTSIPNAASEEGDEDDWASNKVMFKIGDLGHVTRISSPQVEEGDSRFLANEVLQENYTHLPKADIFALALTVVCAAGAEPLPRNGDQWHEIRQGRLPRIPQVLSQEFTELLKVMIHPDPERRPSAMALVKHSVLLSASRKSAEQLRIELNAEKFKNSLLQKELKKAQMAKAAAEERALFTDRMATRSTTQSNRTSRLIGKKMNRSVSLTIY
Sequence of G protein-coupled receptor kinase 5 (Homo sapiens) (P34947 whole entry, looked up): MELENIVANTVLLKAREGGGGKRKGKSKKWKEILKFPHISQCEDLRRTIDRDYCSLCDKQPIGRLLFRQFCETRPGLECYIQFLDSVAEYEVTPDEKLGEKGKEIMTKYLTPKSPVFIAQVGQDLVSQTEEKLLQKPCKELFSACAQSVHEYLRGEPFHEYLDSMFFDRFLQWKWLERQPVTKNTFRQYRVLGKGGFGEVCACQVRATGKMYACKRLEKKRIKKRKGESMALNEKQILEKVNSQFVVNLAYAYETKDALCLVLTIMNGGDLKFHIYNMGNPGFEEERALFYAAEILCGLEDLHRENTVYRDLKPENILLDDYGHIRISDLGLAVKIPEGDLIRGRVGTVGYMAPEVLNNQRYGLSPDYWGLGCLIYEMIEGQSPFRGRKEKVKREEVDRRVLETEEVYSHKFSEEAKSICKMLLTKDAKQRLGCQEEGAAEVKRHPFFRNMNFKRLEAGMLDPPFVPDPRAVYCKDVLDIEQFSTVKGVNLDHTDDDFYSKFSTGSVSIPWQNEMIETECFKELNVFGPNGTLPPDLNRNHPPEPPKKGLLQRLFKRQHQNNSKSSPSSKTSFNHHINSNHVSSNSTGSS
Sequence of Tyrosine-protein kinase FRK (Homo sapiens) (P42685 whole entry): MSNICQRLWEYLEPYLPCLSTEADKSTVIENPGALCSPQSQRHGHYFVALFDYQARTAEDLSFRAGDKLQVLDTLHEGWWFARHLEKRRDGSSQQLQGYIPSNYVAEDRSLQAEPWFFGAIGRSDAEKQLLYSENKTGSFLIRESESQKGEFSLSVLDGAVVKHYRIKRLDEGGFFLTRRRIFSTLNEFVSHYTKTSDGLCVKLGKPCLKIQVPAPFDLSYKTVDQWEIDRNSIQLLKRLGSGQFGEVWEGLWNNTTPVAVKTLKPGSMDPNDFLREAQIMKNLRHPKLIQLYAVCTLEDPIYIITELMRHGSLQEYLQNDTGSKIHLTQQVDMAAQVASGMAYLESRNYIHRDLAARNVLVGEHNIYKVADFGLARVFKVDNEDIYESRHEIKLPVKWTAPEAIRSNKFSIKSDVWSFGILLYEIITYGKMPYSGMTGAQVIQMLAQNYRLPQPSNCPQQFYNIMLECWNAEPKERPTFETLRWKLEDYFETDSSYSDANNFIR

SMILES: Cc1c(-c2cc(Nc3cc4n(n3)CCN(C)C4)c(=O)[nH]n2)ccc(F)c1NC(=O)c1cc2ccccc2s1
- CLH (Hepatocyte): < 6 mL/min/kg
- EC50 (Blood): 257 nM
- EC50 (Monocyte): 37 nM
- clearance (Mus musculus): 43 mL/min/kg
- clearance (Canis familiaris): 14 mL/min/kg
- inhibition [1]: 39.3%
- inhibition [2]: 35.1%
- inhibition [3]: 20.8%
- inhibition [4]: 5.8%
- inhibition [5]: 5.7%
- inhibition [6]: 5.5%
- inhibition [7]: 1.9%
- inhibition [8]: 1.8%
- inhibition [9]: -7.5%
- inhibition [10]: -8%
- inhibition at 10 µM (hERG (KCNH2)): 27%
- inhibition [11]: 3.3%
- inhibition [12]: 3%
- inhibition [13]: 1.8%
- inhibition [14]: 1.1%
- inhibition [15]: -3.8%
- inhibition [16]: -3.8%
- inhibition [17]: 2.5%
- inhibition [18]: 1%
- inhibition [19]: 0.8%
- inhibition [20]: -0.4%
- inhibition [21]: -0.8%
- inhibition [22]: -0.9%
- inhibition [23]: -1.8%
- inhibition [24]: -2%
- inhibition [25]: -2.1%
- inhibition [26]: -2.2%
- inhibition [27]: 15.7%
- inhibition [28]: 14.6%
- inhibition [29]: 14.1%
- inhibition [30]: 7.6%
- inhibition [31]: 6.4%
- inhibition [32]: 4.6%
- inhibition [33]: 4.3%
- inhibition [34]: 3.8%
- inhibition [35]: -3.9%
- inhibition [36]: -4.7%
- inhibition [37]: -5.4%
- inhibition [38]: -5.8%
- inhibition [39]: 3.5%
